According to patent US8268278B2, “Phosphorus-calcium-strontium compound and uses thereof in endodontic cements” (Centre National de la Recherche Scientifique, priority 2006, dated 2012):

Tested on: polymicrobial inoculum taken from dental plaque
Experiment: Inhibition of growth of a polymicrobial inoculum, diffusion in solid agar medium
Format: cell-based
Details: freshly prepared samples
From the text: The activity of these two cements was verified on freshly prepared samples of cement and samples prepared 13 days previously.

With `[Ca+2].[OH-].[OH-]` [Ca(OH)2, calcium hydroxide] the “RIZ (relative inhibition zone, compared with freshly prepared pure calcium hydroxide)” value was 1.
